Values quoted from earlier work as cited in patent US6720307B2, “Glycosylated analogs of fusidic acid” (The University of Michigan, priority 1996, dated 2004).

Tests used:
enterobacteria = settings: all enterobacteria
HIV = settings: in vitro
[1] = system: methicillin-resistant staphylococci

Structure (SMILES): CC(=O)O[C@H]1C[C@@]2(C)[C@@H](C[C@@H](O)[C@H]3[C@@]4(C)CC[C@@H](O)[C@@H](C)[C@@H]4CC[C@@]32C)/C1=C(\CCC=C(C)C)C(=O)O [fusidic acid, 3α,11α,16β-Trihydroxy-29-nor-8α,9β,13α,14β-dammara-17(20),24-dien-21-oic acid 16-acetate]
- susceptibility to fusidic acid (Clostridium spp.): highly susceptible
- susceptibility to fusidic acid (Staphylococcus aureus): highly susceptible
- susceptibility to fusidic acid (enterobacteria): resistant
- efficacy (streptococci): moderate efficacy
- effectiveness against HIV (HIV): in vitro effectiveness
- susceptibility to fusidic acid (Neisseria): susceptible
- susceptibility to fusidic acid (Bacteroides spp.): susceptible
- susceptibility to fusidic acid (Psuedomonas spp.): resistant
- susceptibility to fusidic acid (Gram-negative bacilli): resistant
- efficacy (mycobacteria): moderate efficacy
- susceptibility to fusidic acid (S. epidermidis): highly susceptible
- susceptibility to fusidic acid (fungi): resistant
- efficacy (Nocardia spp.): moderate efficacy
- susceptibility to fusidic acid (corynebacteria): highly susceptible
- susceptibility to fusidic acid [1]: usually susceptible
